Measurements: patent US12312419B2, “Hemiasterlin derivative having cysteine residue” (priority 2019, dated 2025)

What was measured:
porcine tubulin [1] = assay: Evaluation of activity for inhibiting microtubule polymerization using porcine tubulins (2); assay type: biochemical; settings: compound 9.1 μM; 60 minutes after assay initiation; relative to wells without compound; lower = stronger inhibition
Method: (§1) Using a tubulin polymerization inhibition assay kit (catalog number: BK006P) purchased from Cytoskeleton Inc., the polymerization inhibitory activity of compounds of Examples with a concentration of 9.1 μM was evaluated in accordance with the protocol appended to the kit. To a 96 well microplate, 80 mM PIPES pH 6.9, 2 mM MgCl, 0.5 mM EGTA and 5% DMSO buffered solution of the compound to be evaluated was added in an amount of 10 μL for each well, and to these wells, 3 mg/mL porcine tubulin 80 mM PIPES pH 6.9, 2 mM MgCl, 0.5 mM EGTA, 1 mM GTP and 10.2% glycerol solution was added in an amount of 100 μL for each well. In order to examine a state in which tubulins polymerize over time, the absorbance at 340 nm was measured at 37° C., using a microplate reader. As the polymerization of tubulins progresses, the absorbance at 340 nm rises.
The tubulin polymerization inhibitory activity was evaluated based on the proportion of polymerized tubulins 60 minutes after the assay initiation. Specifically, the microtubule polymerization rate (%) was calculated by dividing the absorbance of tubulins that had polymerized at wells to which the compound had been added by the absorbance of tubulins that had polymerized at wells to which the compound had not been added, and multiplying the obtained value by 100.

Karpas-299 cells = assay: Cellular toxicity test (1), CellTiter-Glo cell viability; assay type: cell-based, human; settings: Homo sapiens, 96 h; Karpas-299; cultured 4 days; cell viability
Method: Karpas-299 cells (European Collection of Authenticated Cell Cultures, hereinafter, ECACC), which are human lymphoma cell lines, were cultured in RPMI 1640 (GIBCO) containing 10% fetal bovine serum (MP Biomedicals) (hereinafter, referred to as the “culture medium”). Cells were prepared to be 2×10^5 cells/mL in the culture medium, and were added to a 96 well microplate for cell culturing in an amount of 50 μL for each well. Compounds of Examples or the Comparative Example compound 4 times diluted with the culture medium in 8 stages were added to the microplate in an amount of 50 μL for each well. These were cultured at 37° C. under 5% CO2 for 4 days. After culturing, the microplate was taken out from the incubator, and was left at rest at room temperature for 10 minutes. To each well, 50 μL of CellTiter-Glo Luminescent Cell Viability Assay (Promega) was added, and the resultant mixture was stirred. This mixture was incubated at a dark place for 20 minutes. Using a microplate luminometer, luminescence at each well was measured, thereby calculating the cell viability. From the value of the cell viability, the IC50 value was calculated.
The IC50 value was calculated by the following formula: IC50(nM)=antilog(LOG10(a/b)×(e−d)/(c−d)+LOG10b) • a: concentration a of test substance • b: concentration b of test substance • c: cell viability upon adding test substance with concentration a • d: cell viability upon adding test substance with concentration b • e: intermediate value between maximum and minimum among cell viabilities upon adding test substances with different concentrations (a and b are concentrations crossing the cell viability e, and a>b is indicated).
The cell viability at each concentration was calculated by the following formula: Cell Viability (%)=a′/b′×100 • a′: mean value of luminescence amount of wells to which test substance was added (n=6) • b′: mean value of luminescence amount of wells to which test substance was not added (n=6) • (n represents the number of evaluations performed per test substance concentration).

porcine tubulin [2] = assay: Evaluation of activity for inhibiting microtubule polymerization using porcine tubulins (1); assay type: biochemical; settings: compound 9.1 μM; absorbance at 340 nm at 37° C. over time; FIG. 1
Method: as §1, with “In summary of the protocol, to” for “To”, “mg/ml” for “mg/mL”

| SMILES | Microtubule polymerization rate (%) (porcine tubulin [1]) | IC50 (Karpas-299 cells) [nM] | activity for inhibiting microtubule polymerization (porcine tubulin [2]) |
| --- | --- | --- | --- |
| CN[C@H](C(=O)N[C@H](C(=O)N(C)[C@H](/C=C(\C)C(=O)NCCCCNC(=O)CCCCCN1C(=O)CC(SC[C@H](N)C(=O)O)C1=O)C(C)C)C(C)(C)C)C(C)(C)c1cn(C)c2ccccc12 (stereo partly shown) [Comparative Example compound 2, reference compound] | 0 | 30 |  |
| CN[C@H](C(=O)N[C@H](C(=O)N(C)[C@H](/C=C(\C)C(=O)N[C@H](CCC(=O)NCCN1C(=O)CC(SC[C@H](N)C(=O)O)C1=O)C(=O)O)C(C)C)C(C)(C)C)C(C)(C)c1ccccc1 (stereo partly drawn) [Example MM1, (3S,6S,9S,10E,14R)-14-(3-{[2-(3-{[(2R)-2-Amino-2-carboxyethyl]sulfanyl}-2,5-dioxopyrrolidin-1-yl)ethyl]amino}-3-oxopropyl)-6-tert-butyl-8,11-dimethyl-4,7,12-trioxo-3-(2-phenylpropan-2-yl)-9-(propan-2-yl)-2,5,8,13-tetraazapentadec-10-en-15-oic Acid] | 9 | > 1000 | exhibited activities for inhibiting microtubule polymerization |
| CN[C@H](C(=O)N[C@H](C(=O)N(C)[C@H](/C=C(\C)C(=O)N[C@@H](CCC(=O)NCCN1C(=O)CC(SC[C@H](N)C(=O)O)C1=O)C(=O)O)C(C)C)C(C)(C)C)C(C)(C)c1ccccc1 (stereo partly shown) [Example MM11] | 0 | > 1000 |  |
| CN[C@H](C(=O)N[C@H](C(=O)N(C)[C@H](/C=C(\C)C(=O)N[C@H](CCC(=O)O)C(=O)NCCN1C(=O)CC(SC[C@H](N)C(=O)O)C1=O)C(C)C)C(C)(C)C)C(C)(C)c1ccccc1 (stereo partly shown) [Example MM15] | 0 | > 1000 |  |
| CN[C@H](C(=O)N[C@H](C(=O)N(C)[C@H](/C=C(\C)C(=O)N[C@H](CCC(=O)NCCCCN1C(=O)CC(SC[C@H](N)C(=O)O)C1=O)C(=O)O)C(C)C)C(C)(C)C)C(C)(C)c1ccccc1 (stereo partly shown) [Example MM17] | 0 | 850 |  |
| CN[C@H](C(=O)N[C@H](C(=O)N(C)[C@H](/C=C(\C)C(=O)N[C@@H](CCC(=O)NCCN1C(=O)CC(SC[C@H](N)C(=O)O)C1=O)C(=O)O)C(C)C)C(C)(C)C)C(C)(C)c1cn(C)c2ccccc12 (stereo partly shown) [Example MM18] | 0 | 541 |  |
| CN[C@H](C(=O)N[C@H](C(=O)N(C)[C@H](/C=C(\C)C(=O)N[C@H](CCC(=O)NCCCN1C(=O)CC(SC[C@H](N)C(=O)O)C1=O)C(=O)O)C(C)C)C(C)(C)C)C(C)(C)c1cn(C)c2ccccc12 (stereo partly shown) [Example MM23] | 0 | 942 |  |
| CN[C@H](C(=O)N[C@H](C(=O)N(C)[C@H](/C=C(\C)C(=O)NCCCC[C@@H](NC(=O)CCCN1C(=O)CC(SC[C@H](N)C(=O)O)C1=O)C(=O)O)C(C)C)C(C)(C)C)C(C)(C)c1ccccc1 (stereo partly shown) [Example MM28] | 0 | > 1000 |  |
| CN[C@H](C(=O)N[C@H](C(=O)N(C)[C@H](/C=C(\C)C(=O)N[C@H](CCC(=O)NCCN1C(=O)CC(SC[C@H](N)C(=O)O)C1=O)C(=O)O)C(C)C)C(C)(C)C)C(C)(C)c1cccc(C(F)(F)F)c1 (stereo partly shown) [Example MM30] | 12 | > 1000 |  |
| CN[C@H](C(=O)N[C@H](C(=O)N(C)[C@H](/C=C(\C)C(=O)N[C@H](CCC(=O)NCCN1C(=O)CC(SC[C@H](N)C(=O)O)C1=O)C(=O)O)C(C)C)C(C)(C)C)C(C)(C)C1CCCCC1 (stereo partly shown) [Example MM32] | 0 | > 1000 |  |
| C/C(=C\[C@H](C(C)C)N(C)C(=O)[C@@H](NC(=O)[C@@H](N)C(C)(C)c1ccccc1)C(C)(C)C)C(=O)N[C@H](CCC(=O)NCCN1C(=O)CC(SC[C@H](N)C(=O)O)C1=O)C(=O)O (stereo partly shown) [Example MM45] | 56 | > 1000 |  |
| C/C(=C\[C@H](C(C)C)N(C)C(=O)[C@@H](NC(=O)[C@@H](N(C)C)C(C)(C)c1ccccc1)C(C)(C)C)C(=O)N[C@H](CCC(=O)NCCN1C(=O)CC(SC[C@H](N)C(=O)O)C1=O)C(=O)O (stereo partly shown) [Example MM46] | 0 | > 1000 |  |
